Measurements from the supplement of paper PMC10933438, “Inhibition of urease-mediated ammonia production by 2-octynohydroxamic acid in hepatic encephalopathy” (Nature Communications, 2024).
± gives the standard deviation of the averaged measurements.

Tests used:
Assay in all cases: revertant-positive wells per 48 wells (Ames fluctuation test); higher = more mutagenic; extreme values may be limits of the assay
Settings in all cases: exposure time: 90 min
[1] = test system: Salmonella typhimurium TA100
Experimental: (§1)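 Ames MPF Penta 1 microplate fluctuation assay (Xenometrix): bacteria exposed to compound (in DMSO) for 90 min at 37 °C with or without rat liver S9 fraction, then 2-day selection in histidine/tryptophan-free pH-indicator medium in 384-well plates; read-out is the number of revertant (yellow) wells out of 48, triplicate; compound considered mutagenic at >=2-fold over negative (DMSO) control baseline. Zero wells at high doses reflect cytotoxicity.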

[2] = test system: Salmonella typhimurium TA1537
Experimental: as §1

[3] = test system: Salmonella typhimurium TA1535
Experimental: as §1

[4] = test system: Salmonella typhimurium TA98
Experimental: as §1

[5] = 0.01 mM, S9 metabolic activation: without S9
[6] = 0.05 mM, S9 metabolic activation: with S9
[7] = 0.05 mM, S9 metabolic activation: without S9
[8] = 0.5 mM, S9 metabolic activation: with S9
[9] = 1 mM, S9 metabolic activation: with S9
[10] = 1 mM, S9 metabolic activation: without S9
[11] = 5 mM, S9 metabolic activation: with S9
[12] = 5 mM, S9 metabolic activation: without S9
[13] = 10 mM, S9 metabolic activation: with S9
[14] = 10 mM, S9 metabolic activation: without S9
[15] = 0.01 mM, S9 metabolic activation: with S9
[16] = 0.5 mM, S9 metabolic activation: without S9

CC(=O)NO [acetohydroxamic acid]
revertant-positive wells per 48 wells [1, 5]: 3.67 ± 2.3
revertant-positive wells per 48 wells [1, 6]: 7.33 ± 2.1
revertant-positive wells per 48 wells [1, 7]: 4.33 ± 0.58
revertant-positive wells per 48 wells [1, 8]: 7.33 ± 1.5
revertant-positive wells per 48 wells [1, 9]: 10.3 ± 1.5
revertant-positive wells per 48 wells [1, 10]: 5.67 ± 0.58
revertant-positive wells per 48 wells [1, 11]: 15 ± 2
revertant-positive wells per 48 wells [1, 12]: 13.3 ± 4.7
revertant-positive wells per 48 wells [1, 13]: 18.7 ± 2.5
revertant-positive wells per 48 wells [1, 14]: 17.3 ± 4

CCCCCCCC(=O)NO [octanohydroxamic acid]
revertant-positive wells per 48 wells [2, 6]: 1
revertant-positive wells per 48 wells [2, 8]: 0
revertant-positive wells per 48 wells [2, 9]: 0
revertant-positive wells per 48 wells [2, 11]: 0
revertant-positive wells per 48 wells [2, 12]: 0
revertant-positive wells per 48 wells [2, 13]: 0
revertant-positive wells per 48 wells [2, 14]: 0
revertant-positive wells per 48 wells [1, 15]: 3.67 ± 1.5
revertant-positive wells per 48 wells [1, 5]: 5 ± 3.6
revertant-positive wells per 48 wells [1, 6]: 6.33 ± 1.5
revertant-positive wells per 48 wells [1, 7]: 7.67 ± 1.5
revertant-positive wells per 48 wells [1, 16]: 6 ± 2.6
revertant-positive wells per 48 wells [1, 10]: 8.67 ± 0.58
revertant-positive wells per 48 wells [1, 11]: 5 ± 1.7
revertant-positive wells per 48 wells [1, 12]: 0
revertant-positive wells per 48 wells [1, 13]: 0
revertant-positive wells per 48 wells [1, 14]: 0
revertant-positive wells per 48 wells [3, 5]: 1 ± 1
revertant-positive wells per 48 wells [3, 6]: 2
revertant-positive wells per 48 wells [3, 12]: 0
revertant-positive wells per 48 wells [3, 13]: 0
revertant-positive wells per 48 wells [3, 14]: 0

CCCCCC#CC(=O)NO [2-octynohydroxamic acid]
revertant-positive wells per 48 wells [4, 15]: 0
revertant-positive wells per 48 wells [4, 5]: 1.67 ± 1.5
revertant-positive wells per 48 wells [4, 6]: 1 ± 1
revertant-positive wells per 48 wells [4, 7]: 0.333 ± 0.58
revertant-positive wells per 48 wells [4, 8]: 1 ± 1
revertant-positive wells per 48 wells [4, 16]: 1.67 ± 1.5
revertant-positive wells per 48 wells [4, 9]: 0.333 ± 0.58
revertant-positive wells per 48 wells [4, 10]: 0
revertant-positive wells per 48 wells [4, 11]: 0
revertant-positive wells per 48 wells [4, 12]: 0
revertant-positive wells per 48 wells [4, 13]: 0
revertant-positive wells per 48 wells [4, 14]: 0
revertant-positive wells per 48 wells [2, 15]: 0.333 ± 0.58
revertant-positive wells per 48 wells [2, 5]: 1 ± 1
revertant-positive wells per 48 wells [2, 6]: 1.33 ± 1.1
revertant-positive wells per 48 wells [2, 7]: 0.333 ± 0.58
revertant-positive wells per 48 wells [2, 8]: 0
revertant-positive wells per 48 wells [2, 16]: 1.33 ± 1.5
revertant-positive wells per 48 wells [2, 9]: 0
revertant-positive wells per 48 wells [2, 10]: 3 ± 2.6
revertant-positive wells per 48 wells [2, 11]: 0
revertant-positive wells per 48 wells [2, 12]: 0
revertant-positive wells per 48 wells [2, 13]: 0
revertant-positive wells per 48 wells [2, 14]: 0
revertant-positive wells per 48 wells [1, 15]: 9.33 ± 2.3
revertant-positive wells per 48 wells [1, 5]: 3 ± 1.7
revertant-positive wells per 48 wells [1, 6]: 6 ± 2
revertant-positive wells per 48 wells [1, 7]: 3 ± 1
revertant-positive wells per 48 wells [1, 8]: 0.333 ± 0.58
revertant-positive wells per 48 wells [1, 16]: 1.33 ± 1.1
revertant-positive wells per 48 wells [1, 9]: 0
revertant-positive wells per 48 wells [1, 10]: 0
revertant-positive wells per 48 wells [1, 11]: 0
revertant-positive wells per 48 wells [1, 12]: 0
revertant-positive wells per 48 wells [1, 13]: 0
revertant-positive wells per 48 wells [1, 14]: 0
revertant-positive wells per 48 wells [3, 15]: 0.333 ± 0.58
revertant-positive wells per 48 wells [3, 5]: 1 ± 1
revertant-positive wells per 48 wells [3, 6]: 2 ± 1.7
revertant-positive wells per 48 wells [3, 7]: 1 ± 1
revertant-positive wells per 48 wells [3, 8]: 0.667 ± 1.1
revertant-positive wells per 48 wells [3, 16]: 1.67 ± 1.5
revertant-positive wells per 48 wells [3, 9]: 1.33 ± 0.58
revertant-positive wells per 48 wells [3, 10]: 0.667 ± 1.1
revertant-positive wells per 48 wells [3, 11]: 0
revertant-positive wells per 48 wells [3, 12]: 0
revertant-positive wells per 48 wells [3, 13]: 0
revertant-positive wells per 48 wells [3, 14]: 0
